Measured values published in PubChem BioAssay (NCI).
“And” between values parts separate entries of the source, which are not always exact repeats. Equal values may be shown once.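 Each compound was tested at five concentrations against cells in 96-well plates for 48 hours. Here, GI50 denotes the concentration required for 50% inhibition of growth. TGI: total growth inhibition.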

How the values were obtained:
Assay in all cases: DTP human tumour cell line panel, 48 h
SNB-75 CNS = system: SNB-75 CNS
NCI-H522 lung = system: NCI-H522 lung
NCI-H23 lung = system: NCI-H23 lung
DU-145 prostate = system: DU-145 prostate
KM12 colon = system: KM12 colon
NCI-H226 lung = system: NCI-H226 lung
TK-10 renal = system: TK-10 renal
SK-MEL-2 melanoma = system: SK-MEL-2 melanoma
T-47D breast = system: T-47D breast
HCT-15 colon = system: HCT-15 colon
UO-31 renal = system: UO-31 renal
MDA-MB-231 breast = system: MDA-MB-231 breast
RXF 393 renal = system: RXF 393 renal
HOP-62 NSCLC = system: HOP-62 NSCLC
SF-539 CNS = system: SF-539 CNS
MCF7 breast = system: MCF7 breast
UACC-62 melanoma = system: UACC-62 melanoma
HS 578T breast = system: HS 578T breast
SK-OV-3 ovarian = system: SK-OV-3 ovarian
M14 melanoma = system: M14 melanoma
RPMI-8226 leukemia = system: RPMI-8226 leukemia
OVCAR-5 ovarian = system: OVCAR-5 ovarian
BT-549 breast = system: BT-549 breast
SK-MEL-28 melanoma = system: SK-MEL-28 melanoma
A498 renal = system: A498 renal
SNB-19 CNS = system: SNB-19 CNS
MALME-3M melanoma = system: MALME-3M melanoma
HCT-116 colon = system: HCT-116 colon
HCC-2998 colon = system: HCC-2998 colon
SF-268 CNS = system: SF-268 CNS
COLO 205 colon = system: COLO 205 colon
CCRF-CEM leukemia = system: CCRF-CEM leukemia
SF-295 CNS = system: SF-295 CNS
786-0 renal = system: 786-0 renal
K-562 leukemia = system: K-562 leukemia
OVCAR-3 ovarian = system: OVCAR-3 ovarian
LOX IMVI melanoma = system: LOX IMVI melanoma
U251 CNS = system: U251 CNS
PC-3 prostate = system: PC-3 prostate
HL-60(TB) leukemia = system: HL-60(TB) leukemia
SW-620 colon = system: SW-620 colon
HT29 colon = system: HT29 colon
MOLT-4 leukemia = system: MOLT-4 leukemia
NCI-H460 lung = system: NCI-H460 lung
ACHN renal = system: ACHN renal
MDA-MB-435 = system: MDA-MB-435
IGROV1 ovarian = system: IGROV1 ovarian
NCI/ADR-RES ovarian = system: NCI/ADR-RES ovarian
OVCAR-4 ovarian = system: OVCAR-4 ovarian
EKVX NSCLC = system: EKVX NSCLC
OVCAR-8 ovarian = system: OVCAR-8 ovarian
CAKI-1 renal = system: CAKI-1 renal
SR leukemia = system: SR leukemia
SK-MEL-5 melanoma = system: SK-MEL-5 melanoma
UACC-257 melanoma = system: UACC-257 melanoma
HOP-92 NSCLC = system: HOP-92 NSCLC
A549 NSCLC = system: A549 NSCLC
SN12C renal = system: SN12C renal

**Q.** What does the source list for `Cc1cc(Nc2ncnc3ccc(NC4=NC(C)(C)CO4)cc23)ccc1Oc1ccn2ncnc2c1`?
**A.** GI50 (SNB-75 CNS): 15.6 µM and > 10 µM; TGI (SNB-75 CNS): 51.9 µM and > 10 µM; GI50 (NCI-H522 lung): 2.44 µM and > 10 µM; TGI (NCI-H522 lung): 21.1 µM and > 10 µM; GI50 (NCI-H23 lung): 17 µM and > 10 µM; TGI (NCI-H23 lung): 41.7 µM and > 10 µM; GI50 (DU-145 prostate): 15.9 µM and > 10 µM; TGI (DU-145 prostate): > 100 µM; GI50 (KM12 colon): 15.6 µM and > 10 µM; TGI (KM12 colon): 32.1 µM and > 10 µM; GI50 (NCI-H226 lung): 16.6 µM and > 10 µM; TGI (NCI-H226 lung): > 90.2 µM; GI50 (TK-10 renal): 3.84 µM and 2.76 µM; TGI (TK-10 renal): 25.1 µM and > 10 µM; GI50 (SK-MEL-2 melanoma): 20.1 µM and > 10 µM; TGI (SK-MEL-2 melanoma): 46.4 µM and > 10 µM; GI50 (T-47D breast): 1.33 µM and 1.75 µM; TGI (T-47D breast): 12.8 µM and > 10 µM; GI50 (HCT-15 colon): 8.92 µM and > 10 µM; TGI (HCT-15 colon): > 65.9 µM; GI50 (UO-31 renal): 6.29 µM and > 10 µM; TGI (UO-31 renal): 84.4 µM and > 10 µM; GI50 (MDA-MB-231 breast): 14.1 µM and > 10 µM; TGI (MDA-MB-231 breast): 44.9 µM and > 10 µM; GI50 (RXF 393 renal): 12.7 µM and > 10 µM; TGI (RXF 393 renal): 28.9 µM and > 10 µM; GI50 (HOP-62 NSCLC): 17.6 µM and > 10 µM; TGI (HOP-62 NSCLC): 45.7 µM and > 10 µM; GI50 (SF-539 CNS): 15.6 µM and > 10 µM; TGI (SF-539 CNS): 31.2 µM and > 10 µM; GI50 (MCF7 breast): 13.7 µM and > 10 µM; TGI (MCF7 breast): 31.5 µM and > 10 µM; GI50 (UACC-62 melanoma): 12.5 µM and > 10 µM; TGI (UACC-62 melanoma): 30.3 µM and > 10 µM; GI50 (HS 578T breast): 15.2 µM and > 10 µM; TGI (HS 578T breast): 62.4 µM and > 10 µM; GI50 (SK-OV-3 ovarian): 0.0526 µM; TGI (SK-OV-3 ovarian): > 94.1 µM; GI50 (M14 melanoma): 14.6 µM and > 10 µM; TGI (M14 melanoma): 33.1 µM and > 10 µM; GI50 (RPMI-8226 leukemia): 9.87 µM and 6.82 µM; TGI (RPMI-8226 leukemia): 33.5 µM and > 10 µM; GI50 (OVCAR-5 ovarian): 17.1 µM and > 10 µM; TGI (OVCAR-5 ovarian): 62.9 µM and > 10 µM; GI50 (BT-549 breast): 14.1 µM and > 10 µM; TGI (BT-549 breast): 39.5 µM and > 10 µM; GI50 (SK-MEL-28 melanoma): 13.2 µM and > 10 µM; TGI (SK-MEL-28 melanoma): 29.3 µM and > 10 µM; GI50 (A498 renal): 4.1 µM and > 10 µM; TGI (A498 renal): 24.8 µM and > 10 µM; GI50 (SNB-19 CNS): 21.9 µM and > 10 µM; TGI (SNB-19 CNS): > 100 µM; GI50 (MALME-3M melanoma): 14.7 µM and > 10 µM; TGI (MALME-3M melanoma): 35.7 µM and > 10 µM; GI50 (HCT-116 colon): 21.1 µM and > 10 µM; TGI (HCT-116 colon): > 80.1 µM; GI50 (HCC-2998 colon): 16.5 µM and > 10 µM; TGI (HCC-2998 colon): 30.9 µM and > 10 µM; GI50 (SF-268 CNS): 18.9 µM and > 10 µM; TGI (SF-268 CNS): > 91.9 µM; GI50 (COLO 205 colon): 14.3 µM and > 10 µM; TGI (COLO 205 colon): 32.3 µM and > 10 µM; GI50 (CCRF-CEM leukemia): 15.6 µM and > 10 µM; TGI (CCRF-CEM leukemia): > 95.8 µM; GI50 (SF-295 CNS): 14.9 µM and > 10 µM; TGI (SF-295 CNS): 38.3 µM and > 10 µM; GI50 (786-0 renal): 20.1 µM and > 10 µM; TGI (786-0 renal): > 81.5 µM; GI50 (K-562 leukemia): 17.1 µM and > 10 µM; TGI (K-562 leukemia): > 100 µM; GI50 (OVCAR-3 ovarian): 14.4 µM and > 10 µM; TGI (OVCAR-3 ovarian): 52.6 µM and > 10 µM; GI50 (LOX IMVI melanoma): 13.4 µM and > 10 µM; TGI (LOX IMVI melanoma): 31.3 µM and > 10 µM; GI50 (U251 CNS): 13.4 µM and > 10 µM; TGI (U251 CNS): 35.7 µM and > 10 µM; GI50 (PC-3 prostate): 15.7 µM and > 10 µM; TGI (PC-3 prostate): 66.6 µM and > 10 µM; GI50 (HL-60(TB) leukemia): 21 µM and > 10 µM; TGI (HL-60(TB) leukemia): 46.1 µM and > 10 µM; GI50 (SW-620 colon): 20.5 µM and > 10 µM; TGI (SW-620 colon): 41.2 µM and > 10 µM; GI50 (HT29 colon): 14.4 µM and > 10 µM; TGI (HT29 colon): 38.7 µM and > 10 µM; GI50 (MOLT-4 leukemia): 14.6 µM and > 10 µM; TGI (MOLT-4 leukemia): 42.2 µM and > 10 µM; GI50 (NCI-H460 lung): 17.9 µM and > 10 µM; TGI (NCI-H460 lung): 39.6 µM and > 10 µM; GI50 (ACHN renal): 4.48 µM and 9.46 µM; TGI (ACHN renal): > 100 µM; GI50 (MDA-MB-435): 16.4 µM and > 10 µM; TGI (MDA-MB-435): 36.9 µM and > 10 µM; GI50 (IGROV1 ovarian): 12.5 µM and > 10 µM; TGI (IGROV1 ovarian): > 100 µM; GI50 (NCI/ADR-RES ovarian): 17.1 µM and > 10 µM; TGI (NCI/ADR-RES ovarian): 89.2 µM and > 10 µM; GI50 (OVCAR-4 ovarian): 15.1 µM and > 10 µM; TGI (OVCAR-4 ovarian): 99 µM and > 10 µM; GI50 (EKVX NSCLC): 5.02 µM; TGI (EKVX NSCLC): > 10 µM; GI50 (OVCAR-8 ovarian): 8.75 µM and > 10 µM; TGI (OVCAR-8 ovarian): 55.1 µM and > 10 µM; GI50 (CAKI-1 renal): 6.3 µM and > 10 µM; TGI (CAKI-1 renal): > 61.1 µM; GI50 (SR leukemia): 14.7 µM and > 10 µM; TGI (SR leukemia): 43.8 µM and > 10 µM; GI50 (SK-MEL-5 melanoma): 9.59 µM and 9.83 µM; TGI (SK-MEL-5 melanoma): 22.3 µM and > 10 µM; GI50 (UACC-257 melanoma): 16.9 µM and > 10 µM; TGI (UACC-257 melanoma): 33.1 µM and > 10 µM; GI50 (HOP-92 NSCLC): 3.69 µM and 4.24 µM; TGI (HOP-92 NSCLC): 26.9 µM and > 10 µM; GI50 (A549 NSCLC): 14.9 µM and > 10 µM; TGI (A549 NSCLC): 82.9 µM and > 10 µM; GI50 (SN12C renal): 11 µM and > 10 µM; TGI (SN12C renal): 65.5 µM and > 10 µM
